Reference: US7566739B2, “Substituted N-sulfonylaminophenylethyl-2-phenoxyacetamide compounds as VR1 receptor antagonists” (Pfizer Inc., priority 2005, dated 2009)

Assays:
human VR1 = human VR1 (Homo sapiens, UniProt Q8NER1); experiment: Human VR1 antagonist assay (Ca2+ imaging, capsaicin stimulation); format: cell-based; conditions: human VR1 expressing cells; concentration reducing capsaicin-evoked Ca2+ influx by 50%; capsaicin 300 nM; read-out: hVR1 IC50
Excerpt: VR1 antagonistic activity can be determined by the Ca^2+ imaging assay using human VR1 highly expressing cells. The cells that highly express human VR1 receptors are obtainable from several different conventional methods. The one standard method is cloning from human Dorsal Root Ganglion (DRG) or kidney according to the methods such as described in the journal article; Nature, 389, pp 816-824, 1997. Alternatively VR1 receptors highly expressing human keratinocytes are also known and published in the journal article (Biochemical and Biophysical Research Communications, 291, pp 124-129, 2002). […] Such a genetic modification method was described in detail; Nat. Biotechnol., 19, pp 440-445, 2001. The cells that express human VR1 receptors were maintained in culture flask at 37° C. in an environment containing 5% CO2 until use in the assay. The intracellular Ca^2+ imaging assay to determine VR1 antagonistic activities was done according to the following procedures. The culture medium was removed from the flask and fura-2/AM fluorescent calcium indicator was added to the flask at a concentration of 5 μM in the medium. The flask was placed in CO2 incubator and incubated for 1 hour. Then the cells expressing the human VR1 receptors were detached from the flask follow by washing with phosphate buffer saline, PBS(−) and re-suspended in assay buffer. The 80 μl of aliquot of cell suspension (3.75×10^5 cells/ml) was added to the assay plate and the cells were spun down by centrifuge (950 rpm, 20° C., 3 minutes). The capsaicin-induced changes in the intracellular calcium concentration were monitored using FDSS 6000 (Hamamatsu Photonics, Japan), a fluorometric imaging system. The cell suspension in Krebs-Ringer HEPES (KRH) buffer (115 mM NaCl, 5.4 mM KCl, 1 mM MgSO4, 1.8 mM CaCl2, 11 mM D-Glucose, 25 mM HEPES, 0.96 mM Na2HPO4, pH 7.3) was pre-incubated with varying concentrations of the test compounds or KRH buffer (buffer control) for 15 minutes at room temperature under dark conditions. Then the capsaicin solution, which gives 300 nM in assay mixture, was automatically added to the assay plate by the FDSS 6000. The monitoring of the changes in the fluorescence signals (λex=340 nm/380 nm, λem=510-520 nm) was initiated at 1 minute prior to the addition of capsaicin solution or acidic buffer and continued for 5 minute.

[1] = Half-life in human liver microsomes (HLM); format: in vitro ADME; conditions: human liver microsomes (HLM, HL101), 1 μM compound, 0.78 mg/mL HLM, pH 7.4, 37° C., NADPH
Procedure: Test compounds (1 μM) were incubated with 3.3 mM MgCl2 and 0.78 mg/mL HLM (HL101) in 100 mM potassium phosphate buffer (pH 7.4) at 37° C. on the 96-deep well plate. The reaction mixture was split into two groups, a non-P450 and a P450 group. NADPH was only added to the reaction mixture of the P450 group. An aliquot of samples of P450 group was collected at 0, 10, 30, and 60 minute time points, where the 0 minute time point indicated the time when NADPH was added into the reaction mixture of P450 group. An aliquot of samples of non-P450 group was collected at −10 and 65 minute time points. Collected aliquots were extracted with an acetonitrile solution containing an internal standard. The precipitated protein was spun down in a centrifuge (2000 rpm, 15 min). The compound concentration in supernatant was measured by LC/MS/MS system.
The half-life value was obtained by plotting the natural logarithm of the peak area ratio of compounds/internal standard versus time. The slope of the line of best fit through the points yields the rate of metabolism (k). This was converted to a half-life value using following equations: Half-life=ln 2/k Mono-Iodoacetate (MIA)-Induced OA Model

Chain of human VR1 (Q8NER1 whole entry): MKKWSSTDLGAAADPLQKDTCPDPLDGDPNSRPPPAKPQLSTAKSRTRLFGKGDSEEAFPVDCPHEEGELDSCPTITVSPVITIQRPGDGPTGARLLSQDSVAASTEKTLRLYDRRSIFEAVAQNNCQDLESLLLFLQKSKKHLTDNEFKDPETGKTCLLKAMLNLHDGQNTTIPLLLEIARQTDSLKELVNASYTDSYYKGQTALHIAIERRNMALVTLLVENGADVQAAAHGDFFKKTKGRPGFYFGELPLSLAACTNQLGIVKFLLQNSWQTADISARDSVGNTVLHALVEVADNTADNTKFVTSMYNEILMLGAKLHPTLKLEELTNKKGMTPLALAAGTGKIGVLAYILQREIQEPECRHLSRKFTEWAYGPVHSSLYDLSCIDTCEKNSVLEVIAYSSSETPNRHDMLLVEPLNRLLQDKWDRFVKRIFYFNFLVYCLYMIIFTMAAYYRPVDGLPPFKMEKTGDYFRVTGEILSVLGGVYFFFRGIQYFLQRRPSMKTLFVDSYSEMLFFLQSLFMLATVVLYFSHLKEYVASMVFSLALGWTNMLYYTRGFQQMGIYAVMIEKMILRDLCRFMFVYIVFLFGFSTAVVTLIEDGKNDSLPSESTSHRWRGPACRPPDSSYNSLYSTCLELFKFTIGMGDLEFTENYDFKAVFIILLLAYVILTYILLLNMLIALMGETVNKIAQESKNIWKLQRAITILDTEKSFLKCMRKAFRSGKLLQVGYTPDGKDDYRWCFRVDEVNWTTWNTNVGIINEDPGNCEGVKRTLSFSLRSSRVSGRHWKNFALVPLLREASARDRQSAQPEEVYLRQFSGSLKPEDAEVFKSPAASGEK

Row | IC50 (human VR1) [nM] | half-life at 1 μM [1] [min] | Compound
1 | 3.13 | 31 | Cc1cc([C@@H](C)NC(=O)COc2cc(F)c(C(C)(C)C)c(F)c2)ccc1NS(C)(=O)=O [Example 1, 2-(4-TERT-BUTYL-3,5-DIFLUOROPHENOXY)-N-((1R)-1-{3-METHYL-4-[(METHYLSULFONYL)AMINO]PHENYL}ETHYL)ACETAMIDE]
2 | 31.3 | 12 | C[C@@H](NC(=O)COc1cc(F)c(C(C)(C)C)c(F)c1)c1ccc(NS(C)(=O)=O)c(F)c1 [Example 2, 2-(4-TERT-BUTYL-3,5-DIFLUOROPHENOXY)-N-((1R)-1-{3-FLUORO-4-[(METHYLSULFONYL)AMINO]PHENYL}ETHYL)ACETAMIDE]
3 | 8.7 | 5.8 | C[C@@H](NC(=O)COc1cc(F)c(C(C)(C)C)c(F)c1)c1ccc(NS(C)(=O)=O)c(CO)c1 [Example 4, 2-(4-TERT-BUTYL-3,5-DIFLUOROPHENOXY)-N-((1R)-1-{3-(HYDROXYMETHYL)-4-[(METHYLSULFONYL)AMINO]PHENYL}ETHYL)ACETOAMIDE]

Second part, the molecule before the results:

Row | Compound | IC50 (human VR1) [nM] | half-life at 1 μM [1] [min]
4 | C[C@@H](NC(=O)COc1cc(F)c(C(C)(C)C)c(F)c1)c1ccc(NS(C)(=O)=O)cc1 [Example 3, 2-(4-TERT-BUTYL-3,5-DIFLUOROPHENOXY)-N-((1R)-1-{4-[(METHYLSULFONYL)AMINO]PHENYL}ETHYL)ACETAMIDE] | 34.4 | 48
5 | Cc1cc([C@@H](C)NC(=O)COc2cc(F)c(C(C)(C)C(F)(F)F)c(F)c2)ccc1NS(C)(=O)=O [Example 5, 2-[3,5-DIFLUORO-4-(2,2,2-TRIFLUORO-1,1-DIMETHYLETHYL)PHENOXY]-N-((1R)-1-{3-METHYL-4-[(METHYLSULFONYL)AMINO]PHENYL}ETHYL)ACETAMIDE] | 7.55 | 13
